According to patent publication US10844062B2, “Pyridine derivative inhibiting RAF kinase and vascular endothelial growth factor receptor, method for preparing same, pharmaceutical composition containing same, and use thereof” (SAMJIN PHARMACEUTICAL CO., LTD., priority 2016, dated 2020):

System: LS513 KRAS G12V (colon)
Test: MTT assay
Assay type: cell-based
Conditions: Homo sapiens, LS-513, 72 h, Table 4; 3 days incubation; read-out: MTT assay IC50 KRAS mutant (Colon) LS513 KRAS G12V
Experimental: MTT assay is frequently used for the purpose of primary screening for the sensitivity of anticancer agents and to examine cytotoxicity. When cancer cells are treated with varying concentrations of any anticancer agent for a predetermined time to induce death of the cells and are then treated with MTT, and when the formation of formazan is measured, the concentration of the anticancer agent, at which about 50% of the cells survive, can be determined. This concentration value is called IC50. IC50 values differ between drugs, and thus can be characteristic of the drugs. Using this method, the effects of anticancer agents against cell proliferation can be quantitatively compared. Thus, in order to measure the cytotoxicity of samples, MTT assay was performed using CellTiter 96 Non-radioactive Cell Proliferation Assay Kit (Promega).
Cells in a cell suspension were counted with a hematocytometer, and then 200 μL of the cell suspension was added to each well of a 96 well plate at a desired concentration (cell amount determined depending on a cell line). After cell seeding, the cells were incubated in a CO2 incubator at 37° C. overnight. After one day of cell stabilization, the cells were treated with desired concentrations of the compounds. The cells were incubated in a CO2 incubator at 37° C. for 3 days, and then the sample was removed, and 200 μL of MTT solution was added to each well. After 2 hours of incubation, the MTT dilution was carefully shaken, and 200 μL of DMSO was added to each well, followed by shaking with a plate shaker for 60 minutes.

| Structure (SMILES) | IC50 [nM] |
| --- | --- |
| Cc1cn(-c2cc(C(=O)Nc3ccc(F)c(Nc4ncccc4-c4ncnc5[nH]cnc45)c3F)cc(C(F)(F)F)c2)cn1 [Example 2, N-(3-(3-(9H-purin-6-yl)pyridin-2-ylamino)-2,4-difluorophenyl)-3-(4-methyl-1H-imidazol-1-yl)-5-(trifluoromethyl)benzamide] | > 10000 |
| CCN1CCN(Cc2ccc(C(=O)Nc3ccc(F)c(Nc4ncccc4-c4ncnc5[nH]cnc45)c3F)cc2C(F)(F)F)CC1 [Example 3, N-(3-(3-(9H-purin-6-yl)pyridin-2-ylamino)-2,4-difluorophenyl)-4-((4-ethylpiperazin-1-yl)methyl)-3-(trifluoromethyl)benzamide] | 4030 |
| CC(C)C(=O)Nc1ccc(F)c(Nc2ncccc2-c2ncnc3[nH]cnc23)c1F [Example 4, N-(3-(3-(9H-purin-6-yl)pyridin-2-ylamino)-2,4-difluorophenyl)isobutylamide] | > 10000 |
| O=C(Nc1ccc(F)c(Nc2ncccc2-c2ncnc3[nH]cnc23)c1F)c1cccs1 [Example 5, N-(3-(3-(9H-purin-6-yl)pyridin-2-ylamino)-2,4-difluorophenyl)thiophene-2-carboxamide] | > 10000 |
| O=C(Nc1ccc(F)c(Nc2ncccc2-c2ncnc3[nH]cnc23)c1F)c1ccco1 [Example 6, N-(3-(3-(9H-purin-6-yl)pyridine-2-ylamino)-2,4-difluorophenyl)furan-2-carboxamide] | > 10000 |
| O=C(Nc1ccc(F)c(Nc2ncccc2-c2ncnc3[nH]cnc23)c1F)c1ccno1 [Example 7, N-(3-(3-(9H-purin-6-yl)pyridin-2-ylamino)-2,4-difluorophenyl)isoxazole-5-carboxamide] | > 10000 |
| O=C(Nc1ccc(F)c(Nc2ncccc2-c2ncnc3[nH]cnc23)c1F)c1cncs1 [Example 8, N-(3-(3-(9H-purin-6-yl)pyridin-2-ylamino)-2,4-difluorophenyl)thiazole-5-carboxamide] | > 10000 |
| CN1CCN(c2cc(C(=O)Nc3ccc(F)c(Nc4ncccc4-c4ncnc5[nH]cnc45)c3F)cc(C(F)(F)F)c2)CC1 [Example 10, N-(3-(3-(9H-purin-6-yl)pyridin-2-ylamino)-2,4-difluorophenyl)-3-(4-methylpiperazin-1-yl)-5-(trifluoromethyl)benzamide] | 1170 |
| O=C(Nc1ccc(F)c(Nc2ncccc2-c2ncnc3[nH]cnc23)c1F)c1cc(N2CCSCC2)cc(C(F)(F)F)c1 [Example 11, N-(3-(3-(9H-purin-6-yl)pyridin-2-ylamino)-2,4-difluorophenyl)-3-thiomorpholino-5-(trifluoromethyl)benzamide] | 996 |
| O=C(Nc1ccc(F)c(Nc2ncccc2-c2ncnc3[nH]cnc23)c1F)c1cc(N2CCC(O)CC2)cc(C(F)(F)F)c1 [Example 12, N-(3-(3-(9H-purin-6-yl)pyridin-2-ylamino)-2,4-difluorophenyl)-3-(4-hydroxypiperidin-1-yl)-5-(trifluoromethyl)benzamide] | 1020 |
| CC1CCN(c2cc(C(=O)Nc3ccc(F)c(Nc4ncccc4-c4ncnc5[nH]cnc45)c3F)cc(C(F)(F)F)c2)CC1 [Example 13, N-(3-(3-(9H-purin-6-yl)pyridin-2-ylamino)-2,4-difluorophenyl)-3-(4-methylpiperidin-1-yl)-5-(trifluoromethyl)benzamide] | 1150 |
| O=C(Nc1ccc(F)c(Nc2ncccc2-c2ncnc3[nH]cnc23)c1F)c1ccc(N2CCSCC2)c(C(F)(F)F)c1 [Example 14, N-(3-(3-(9H-purin-6-yl)pyridin-2-ylamino)-2,4-difluorophenyl)-4-thiomorpholino-3-(trifluoromethyl)benzamide] | 851 |
| CC1CCN(c2ccc(C(=O)Nc3ccc(F)c(Nc4ncccc4-c4ncnc5[nH]cnc45)c3F)cc2C(F)(F)F)CC1 [Example 15, N-(3-(3-(9H-purin-6-yl)pyridin-2-ylamino)-2,4-difluorophenyl)-4-(4-methylpeperidin-1-yl)-3-(trifluoromethyl)benzamide] | 1670 |
| O=C(Nc1ccc(F)c(Nc2ncccc2-c2ncnc3[nH]cnc23)c1F)c1ccc(Cl)c(C(F)(F)F)c1 [Example 16, N-(3-(3-(9H-purin-6-yl)pyridin-2-ylamino)-2,4-difluorophenyl)-4-chloro-3-(trifluoromethyl)benzamide] | 2780 |
| O=C(Nc1ccc(F)c(Nc2ncccc2-c2ncnc3[nH]cnc23)c1F)c1ccc2c(c1)OCCO2 [Example 17, N-(3-(3-(9H-purin-6-yl)pyridin-2-ylamino)-2,4-difluorophenyl)-2,3-dihydrobenzo[b][1,4]dioxine-6-carboxamide] | 1160 |
| O=C(Nc1ccc(F)c(Nc2ncccc2-c2ncnc3[nH]cnc23)c1F)c1cc(N2CCOCC2)cc(C(F)(F)F)c1 [Example 18, N-(3-(3-(9H-purin-6-yl)pyridin-2-ylamino)-2,4-difluorophenyl)-3-morpholino-5-(trifluoromethyl)benzamide] | 3020 |

| Structure (SMILES) | IC50 [nM] |
| --- | --- |
| O=C(Nc1ccc(F)c(Nc2ncccc2-c2ncnc3[nH]cnc23)c1F)c1ccc(N2CCCC2)c(C(F)(F)F)c1 [Example 19, N-(3-(3-(9H-purin-6-yl)pyridin-2-ylamino)-2,4-difluorophenyl)-4-(pyrrolidin-1-yl)-3-(trifluoromethyl)benzamide] | 939 |
| N#CC1(c2cccc(C(=O)Nc3ccc(F)c(Nc4ncccc4-c4ncnc5[nH]cnc45)c3F)c2)CC1 [Example 20, N-(3-(3-(9H-purin-6-yl)pyridin-2-ylamino)-2,4-difluorophenyl)-3-(1-cyanocyclopropyl)benzamide] | 2600 |
| CC(C)(C(N)=O)c1cccc(C(=O)Nc2ccc(F)c(Nc3ncccc3-c3ncnc4[nH]cnc34)c2F)c1 [Example 22, N-(3-(3-(9H-purin-6-yl)pyridin-2-ylamino)-2,4-difluorophenyl)-3-(1-amino-2-methyl-1-oxopropan-2-yl)benzamide] | > 10000 |
| CC(C)(C#N)c1cccc(C(=O)Nc2cc(Nc3ncccc3-c3ncnc4[nH]cnc34)ccc2Cl)c1 [Example 24, N-(5-(3-(9H-purin-6-yl)pyridin-2-ylamino)-2-chlorophenyl)-3-(2-cyanopropan-2-yl)benzamide] | 476 |
| CC(C)(C#N)c1cccc(C(=O)Nc2c(F)ccc(Nc3ncccc3-c3ncnc4[nH]cnc34)c2F)c1 [Example 25, N-(3-(3-(9H-purin-6-yl)pyridin-2-ylamino)-2,6-difluorophenyl)-3-(2-cyanopropan-2-yl)benzamide] | > 10000 |
| O=C(Nc1ccc(F)c(Nc2ncccc2-c2ncnc3[nH]cnc23)c1F)c1ccccc1C(F)(F)F [Example 26, N-(3-(3-(9H-purin-6-yl)pyridin-2-ylamino)-2,4-difluorophenyl)-2-(trifluoromethyl)benzamide] | > 10000 |
| O=C(Nc1ccc(F)c(Nc2ncccc2-c2ncnc3[nH]cnc23)c1F)c1ccc(C(F)(F)F)cc1 [Example 27, N-(3-(3-(9H-purin-6-yl)pyridin-2-ylamino)-2,4-difluorophenyl)-4-(trifluoromethyl)benzamide] | > 10000 |
| O=C(Nc1ccc(F)c(Nc2ncccc2-c2ncnc3[nH]cnc23)c1F)c1cc(F)cc(C(F)(F)F)c1 [Example 28, N-(3-(3-(9H-purin-6-yl)pyridin-2-ylamino)-2,4-difluorophenyl)-3-fluoro-5-(trifluoromethyl)benzamide] | 958 |
| CC(C)(C#N)c1cccc(C(=O)Nc2cccc(Nc3ncccc3-c3ncnc4[nH]cnc34)c2F)c1 [Example 29, N-(3-(3-(9H-purin-6-yl)pyridin-2-ylamino)-2-fluorophenyl)-3-(2-cyanopropan-2-yl)benzamide] | 978 |
| O=C(Nc1cc(Nc2ncccc2-c2ncnc3[nH]cnc23)c(F)cc1F)c1cccc(C(F)(F)F)c1 [Example 31, N-(5-(3-(9H-Purin-6-Yl)Pyridin-2-Ylamino)-2,4-Difluorophenyl)-3-(Trifluoromethyl)Benzamide] | > 10000 |
| CC(C)(C#N)c1cccc(C(=O)Nc2cc(Nc3ncccc3-c3ncnc4[nH]cnc34)c(F)cc2F)c1 [Example 32, N-(5-(3-(9H-Purin-6-Yl)Pyridin-2-Ylamino)-2,4-Difluorophenyl)-3-(2-Cyanopropan-2-Yl)Benzamide] | 173 |
| O=C(Nc1ccc(F)c(Nc2ncccc2-c2ncnc3[nH]cnc23)c1F)c1cccc([N+](=O)[O-])c1 [Example 34, N-(3-(3-(9H-Purin-6-Yl)Pyridin-2-Ylamino)-2,4-Difluorophenyl)-3-Nitrobenzamide] | > 10000 |
| COc1cccc(C(=O)Nc2ccc(F)c(Nc3ncccc3-c3ncnc4[nH]cnc34)c2F)c1 [Example 35, N-(3-(3-(9H-Purin-6-Yl)Pyridin-2-Ylamino)-2,4-Difluorophenyl)-3-Methoxybenzamide] | > 10000 |
| N#Cc1cccc(C(=O)Nc2ccc(F)c(Nc3ncccc3-c3ncnc4[nH]cnc34)c2F)c1 [Example 37, N-(3-(3-(9H-Purin-6-Yl)Pyridin-2-Ylamino)-2,4-Difluorophenyl)-3-Cyanobenzamide] | > 10000 |
| COc1ccc(C(=O)Nc2ccc(F)c(Nc3ncccc3-c3ncnc4[nH]cnc34)c2F)cc1C(F)(F)F [Example 38, N-(3-(3-(9H-Purin-6-Yl)Pyridin-2-Ylamino)-2,4-Difluorophenyl)-4-Methoxy-3-(Trifluoromethyl)Benzamide] | 1860 |
